How the values were obtained:
[1] = system: LasR quorum sensing system; test: LasR assay (unstable gfp fused to elastase promoter); assay type: cell-based, Pseudomonas aeruginosa; details: for inhibition at 100 µg/mL / inhibition at 25 µg/mL / inhibition at 50 µg/mL: Pseudomonas aeruginosa; for inhibition at 100 µg/mL: read-out: LasR % inhibition at 100 μg/ml; for inhibition at 25 µg/mL: read-out: LasR (% inhibition at 25 ug/ml compound); for LasR % inhibition at 100 μg/ml: 100 μg/ml compound; for inhibition at 50 µg/mL: read-out: LasR % inhibition at 50 μg/ml
Experimental: Compounds of the present invention were also assayed using a LasR assay. The LasR assay provides a measurement of quorum sensing inhibition activity. […] In the LasR assay, an unstable gfp has been fused to the elastase promoter, so that the amount of Gfp is regulated by the QS system. The plasmid is put into Pseudomonas aeruginosa which makes its own AHL signals. The assay is performed by adding the compounds to be tested to the system at the beginning of the experiment, at different concentrations. Gfp expression is measured at different times during growth, ending at the 24 h time point. The percentage fluorescence was determined at the time point when the fluorescence reached its maximum in the control, usually around 11-12 h after inoculation.

[2] = system: V. fischeri luxRI system (AHL quorum sensing, gfp fused to luxI promoter); test: N-acylated homoserine lactone (AHL) quorum sensing assay, GFP reporter strain; assay type: cell-based, E. coli; details: for ID40 at 3 nM OHHL: value in brackets; for AIC40: inhibition index: slope of ID40 vs AHL concentration, lower is better
Experimental: Compounds of the present invention were compared to compounds of the prior art in order using an AHL-quorum sensing assay which utilises a reporter strain that expresses Green Fluorescent Protein (GFP) in the presence of AHL signals. The assay is performed by measuring GFP output in the presence of the compound to be measured and comparing the output to a control. By using multiple samples at varying concentrations of compound and AHL, an inhibition index of compound activity can be generated. The inhibition index used in the present example is the relative amount of compound required to reduce GFP expression to 40% of the control. The inhibition index is termed AIC40. Lower values of AIC40 represent better inhibitors of the AHL quorum sensing system.
The reporter strain of bacterium used in this assay is E. coli into which the V. fischeri luxRI system has been engineered. A gfp gene is fused to the QS controlled luxI promoter as is described in (Andersen et al., 2001, and Andersen et al, 1998).
Measurement of AIC40 (ID40 at 3 nM OHHL)
Determination of the activity of compounds using the E. coli based luxRI construct was performed as follows.
In a 15 mL plastic tube, mix 3 mL of o.n. culture of the lux reporter strain with 12 mL fresh medium, incubate at 37° C. Label six tubes, 10, 20, two 50 and two 100. To each of the tubes, add OHHL (3-oxohexanoyl homoserine lactone) to a final concentration of 10, 20, 50, or 100 nM respectively in the AB medium (add enough medium to distribute across the appropriate number of wells). To the first row of the microplate (row A), add 200 ul of the OHHL/AB mixture. To the remaining rows (B-H) add 100 ul of the OHHL/AB mixture. To the first row (A) add compounds to be tested to the 200 ul mixture of OHHL/AB. Make a dilution series in the first 7 rows by transferring 100 μL from wells in row 1 to wells in row 2 and so on. Discard the remaining 100 μL from row 7. Add 100 μL diluted lux monitor to each well. Incubate the plate 2 hours at 37° C. and measure green fluorescence using the “Victor” plate reader.
Calculate ID40 for each column. To do this, calculate the relative activity in each well. […] Make a plot for each concentration of OHHL vs. the range of compound concentrations used. Calculate the amount of compound needed to lower the relative activity to 40%, this is termed inhibiting dose 40%, ID40. For each compound an inhibition index, AIC40, is found as follows: plot ID40 against its respective AHL concentration; AIC40 is the slope of the best straight line through the plotted points and origin.

[3] = system: E. coli biofilm; test: Inhibition of biofilm formation, Petri dish model, E. coli; assay type: cell-based; details: 48 h exposure
Experimental: (§1) Compounds were run in a Petri dish model—where the cells of E. coli or Pseudomonas aeruginosa were exposed to the compound for 48 h. The amount of biofilm was determined by combining image data of the XY (surface cover in one plane) and XZ (depth). The controls gave good biofilm cover and some structure formation.

[4] = system: Pseudomonas aeruginosa biofilm; test: Inhibition of biofilm formation, Petri dish model, Pseudomonas aeruginosa; assay type: cell-based; details: 10 μg/mL, 48 h exposure
Experimental: as §1

[5] = amount lowering GFP activity to 40%

Molecule	inhibition at 25 µg/mL [1] [%]	melting point	AIC40 [2]	further results
CC1OC(=O)C=C1c1ccccc1 (centres unmarked) [Compound 27, 5-methyl-4-phenyl-2(5H)furanone]	9	–	–	inhibition at 100 µg/mL [1]: 57%
(Z)-5-(4-(trifluoromethyl)benzylidene)furan-2(5H)-one [Compound 29]	–	–	–	LasR (% inhibition at 25 ug/ml compound) [1]: 15.8%; LasR % inhibition at 100 μg/ml [1]: 38.4%
Cc1noc(C)c1C1=CC(=O)OC1 [Compound 7, 4-(3′,5′-Dimethylisoxazol-4′-yl)furan-2(5H)-one]	–	101 to 103 °C	–	–
(Z)-5-(4-fluorobenzylidene)furan-2(5H)-one [Compound 28]	–	–	–	LasR (% inhibition at 25 ug/ml compound) [1]: 13%; LasR % inhibition at 100 μg/ml [1]: 53%
O=C1C=C(c2ccc(F)cc2)CO1 [Compound 2, 4-(4′-Fluorophenyl)furan-2(5H)-one]	–	–	14.39	ID40 at 3 nM OHHL [2, 5]: 39.4
O=C1C=C(c2ccc(F)cc2F)CO1 [Compound 1, 4-(2′,4′-Difluorophenyl)furan-2(5H)-one]	–	–	7.6	ID40 at 3 nM OHHL [2, 5]: 17.83
O=C1C=C(Br)/C(=C/c2ccsc2)O1 [Compound 25]	20	–	–	inhibition at 100 µg/mL [1]: 78%
O=C1C=C(c2ccc(C(F)(F)F)cc2)CO1 [Compound 3, 4-(4′-Trifluoromethylphenyl)furan-2(5H)-one]	22	–	0.77	ID40 at 3 nM OHHL [2, 5]: 4.37
O=C1C=C(Br)CO1 [Compound 11, 4-Bromofuran-2(5H)-one]	–	72 to 74 °C	–	–
O=C1C=C(c2cccc(C(F)(F)F)c2)/C(=C/c2cccc(C(F)(F)F)c2)O1 [Compound 24]	19	–	–	inhibition at 100 µg/mL [1]: 35%
Cn1cc(C2=CC(=O)OC2)cn1 [Compound 12, 4-(N-Methylpyrazol-4′-yl)furan-2(5H)-one]	–	181 to 182 °C	–	inhibition at 50 µg/mL [1]: 22.9%
O=C1C=C(c2ccccc2)/C(=C/c2cccc(C(F)(F)F)c2)O1 [Compound 13]	–	108 to 110 °C	–	–
O=C1C=C(c2ccc(OC(F)(F)F)cc2)CO1 [Compound 5, 4-(4′-Trifluoromethoxyphenyl)furan-2(5H)-one]	19.3	122 to 123 °C	5.9	ID40 at 3 nM OHHL [2, 5]: 11.37; inhibition at 50 µg/mL [1]: 43.2%
O=C1C=C(c2ccc(Br)cc2)CN1 [Compound 35, 4-(4′-Bromophenyl)-pyrrol-2(5H)-one]	–	233 to 235 °C (dec.)	–	–
O=C1C=C(c2ccccc2C(F)(F)F)CO1 [Compound 9, 4-(2′-Trifluoromethylphenyl)furan-2(5H)-one]	–	49 to 50 °C	–	–
O=C1C=C(c2cccc(C(F)(F)F)c2)CO1 [Compound 8, 4-(3′-Trifluoromethylphenyl)furan-2(5H)-one]	22	124 to 125 °C	–	inhibition at 50 µg/mL [1]: 42.2%
O=C1C=C(c2ccc(C(F)(F)F)cc2C(F)(F)F)CO1 [Compound 15, 4-(2′,4′-Bis(trifluoromethyl)phenyl)furan-2(5H)-one]	–	116 to 117 °C	–	–
O=C1C=C(Br)/C(=C/c2cccs2)O1 [Compound 26]	30	–	–	inhibition at 100 µg/mL [1]: 76%
O=C1C=C(c2ccc(F)cc2)CN1 [Compound 36, 4-(4′-Fluorophenyl)-1H-pyrrol-2(5H)one]	–	190 °C	–	–
(Z)-4-(3′-(Trifluoromethyl)phenyl)-5-(3″-(trifluoromethyl)benzylidene)furan-2(5H)-one [Compound 23]	–	–	4.64	ID40 at 3 nM OHHL [2, 5]: 22.1; LasR (% inhibition at 25 ug/ml compound) [1]: 23%; LasR % inhibition at 100 μg/ml [1]: 46.4%
O=C1C=C(c2ccsc2)CO1 [Compound 14, 4-(Thiophen-3′-yl)furan-2(5H)-one]	15	130.5 to 132 °C	4.9	ID40 at 3 nM OHHL [2]: 60 µM
O=C1C=C(c2ccc(OC(F)(F)F)cc2)/C(=C/c2ccc(OC(F)(F)F)cc2)O1 [Compound 21, (Z)-4-(4′-(Trifluoromethoxy)phenyl)-5-(4″-(trifluoromethoxy)benzylidene)furan-2(5H)-one]	14.7	–	4.4	ID40 at 3 nM OHHL [2, 5]: 148; inhibition at 100 µg/mL [1]: 47%
O=C1C=C(c2ccc(C(F)(F)F)cc2)/C(=C/c2ccc(C(F)(F)F)cc2)O1 [Compound 17, (Z)-4-(4′-(trifluoromethyl)phenyl)-5-(4″-(trifluoromethyl)benzylidene)furan-2(5H)-one]	–	127.5 to 129 °C	–	–
O=C1C=C(c2cccs2)CO1 [Compound 6, 4-(Thiophen-2′-yl)furan-2(5H)-one]	10	94 to 96.5 °C	24.6	ID40 at 3 nM OHHL [2, 5]: 58.7; % biofilm ([3]; 25 μg/mL): 87.7%; % biofilm ([3]; 40 μg/mL): 97%; % biofilm [4]: 77%
